This note sets out measurements from patent US9624269B2, “Peptide inhibitors of BACE1” (GENENTECH, INC., priority 2011, dated 2017).

Positions of bridges follow the written chain, without caps; N, C: chain ends. Residues, ends and D or L forms follow the SMILES beside them. Where only a bound is given, the exact number is not on record here.

Test [1] addresses T1, human BACE1 (rhBACE1) (Homo sapiens, UniProt P56817). The test can be described thus: BACE1 HTRF activity assay (Bi27 substrate). The test is classed as biochemical. Particulars: for IC50: Bi27 27-mer substrate, pH 4.4. On the procedure: Briefly, a homogeneous time-resolved fluorescence (HTRF) assay can be used to measure BACE1 aspartyl protease activity with the use of an amyloid precursor protein BACE1 cleavage site peptide. For example, the Bi27 peptide (Biotin-[…] (SEQ ID NO:5), American Peptide Company)), is combined with BACE1 pre-incubated with an anti-BACE antibody in BACE reaction buffer (50 mM sodium acetate pH 4.4 and 0.1% CHAPS) in a 384-well plate (Proxiplate™, Perkin-Elmer). The proteolytic reaction mixture is incubated at ambient temperature for 75 minutes and is quenched by the addition of 5 μL HTRF detection mixture containing 2 nM Streptavidin-D2 and 150 nM of an anti-amyloid beta antibody labeled with Europium cryptate in detection buffer (200 mM Tris pH 8.0, 20 mM EDTA, 0.1% BSA, and 0.8M KF). The final reaction mixture is incubated at ambient temperature for 60 minutes and the TR-FRET signal is measured using an EnVision Multilabel Plate Reader™ (Perkin-Elmer) at an excitation wavelength of 320 nm and emission wavelengths of 615 and 665 nm.
BACE1 HTRF Activity Assay.
The BACE1 HTRF reaction was initiated by the addition of 2 μl of 600 nM Bi27 (Biotin-[…] (SEQ ID NO: 5), American Peptide Company) to 6 μl of 2.7 nM rhBACE1 pre-incubated with peptides or small molecule inhibitors in BACE1 reaction buffer (50 mM NaOAc pH 4.4 and 0.1% CHAPS) in a 384-well Proxiplate (Perkin Elmer). The 8 μl proteolytic reaction mixture was incubated at ambient temperature for 24 h and was quenched by the addition of 8 μl HTRF detection mixture containing 150 nM Streptavidin-D2 and 5 nM 6E10 labeled with Europium cryptate in detection buffer (200 mM Tris pH 8.0, 20 mM EDTA, 0.1% BSA, and 0.8 M KF). The final reaction mixture was incubated at room temperature for 60 min and the TR-FRET signal was measured on the EnVision Multilabel Plate Reader (Perkin Elmer) (excitation at 320 nm, emission at 615 and 665 nm). The data was analyzed using GraphPad Prism 5 (La Jolla, Calif.).
Target sequence in this assay (P56817 46-501): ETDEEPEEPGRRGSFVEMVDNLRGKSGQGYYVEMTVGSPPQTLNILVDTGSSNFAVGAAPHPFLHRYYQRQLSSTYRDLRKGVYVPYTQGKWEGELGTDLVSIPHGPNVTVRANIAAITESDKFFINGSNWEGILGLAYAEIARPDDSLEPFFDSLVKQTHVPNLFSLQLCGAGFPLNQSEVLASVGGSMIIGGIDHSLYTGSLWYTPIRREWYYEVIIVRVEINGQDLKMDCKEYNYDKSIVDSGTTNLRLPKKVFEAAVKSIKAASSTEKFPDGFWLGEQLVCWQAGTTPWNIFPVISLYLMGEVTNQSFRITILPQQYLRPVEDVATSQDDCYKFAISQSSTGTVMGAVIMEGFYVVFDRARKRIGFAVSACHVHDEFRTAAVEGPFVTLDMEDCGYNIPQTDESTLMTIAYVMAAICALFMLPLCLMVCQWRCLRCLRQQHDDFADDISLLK

The target in test [2] is T1, human BACE1 (rhBACE1). Put plainly: BACE1 fluorescence polarization (FP) competition binding assay with 5-TAMRA-BACE020 probe. As to conditions: competition with 3 nM 5-TAMRA-BACE020, 12 nM rhBACE1, pH 4.4. On the procedure:
BACE1 Fluorescence Polarization Competition Binding Assay.
BACE1 binding assays were carried out in a final volume of 10 μL per well in black 384-well microplates (Proxiplate-Plus; Perkin Elmer, Waltham, Mass.). A standard binding reaction, initiated by the addition of 5 μL 2× enzyme to 2.5 μL of 4× binding probe and […] of 4× inhibitor, contained 12 nM rhBACE1, 3 nM 5-TAMRA-[…] (SEQ ID NO: 16) (5-TAMRA-BACE020), 50 mM NaOAc, pH 4.4 with 0.1% CHAPS. The reaction was permitted to proceed towards equilibrium for 2 h at ambient temperature prior to fluorescence polarization measurement using Envision (Perkin Elmer). The parallel and perpendicular fluorescent emissions measured in each well at 595 nm (excitation 531 nm polarized light) were used to determine the milli-polarization level (mP) using the following formula: mP=1000*(S-G*P)/(S+G*P) where S=parallel emission, P=perpendicular emission and G=0.65. The mP value in each well was plotted as a function of inhibitor concentration and the 50% inhibition (IC50) values were determined using a nonlinear least squares fit of the data to a four parameter equation using Prism 5.0 software (GraphPad Software, San Diego, Calif.). 5-TAMRA-labeled BACE020 was purchased from American Peptide Company, Inc (Sunnyvale, Calif.) and solubilized in DMSO to 100 mM for storage.
The affinities of BACE1 peptide ligands were measured using the abovementioned competition binding FP assay for determining IC50 values with serially diluted peptides. A Caliper assay was used to measure the inhibition of BACE1 enzymatic activity by peptide ligands. […] Furthermore, the IC50 values measured by the Caliper assay for peptides BACE017-021 and BACE025-028 are consistent with those measured by the HTRF assay.
Target sequence in this assay (P56817 46-501): as above

Test [3] deals with T1, human BACE1 (rhBACE1). Put plainly: Caliper BACE1 activity assay (microfluidic capillary electrophoresis). The test is classed as biochemical. Details: containing human BACE1 (extracellular domain). Particulars: 12 nM rhBACE1, 1 μM FAM-substrate, pH 4.4. The protocol: An MCE assay reactions can be carried out in a standard enzymatic reaction, initiated by the addition of substrate to enzyme and 4× compound, containing human BACE1 (extracellular domain), amyloid precursor protein beta secretase active site peptide (FAM-[…]-CONH2 (SEQ ID NO: 20)), 50 mM NaOAc pH 4.4 and 0.1% CHAPS. After incubation for 60 minutes at ambient temperature, the product and substrate in each reaction is separated using a 12-sipper microfluidic chip analyzed on an LC3000® (both, Caliper Life Sciences). The separation of product and substrate is optimized by choosing voltages and pressure using the manufacturer's optimization software. Substrate conversion is calculated from the electrophoregram using HTS Well Analyzer software (Caliper Life Sciences).
BACE1, BACE2 and Cathepsin D Activity Assay Using Microfluidic Capillary Electrophoresis (MCE).
BACE1, BACE2, and Cathepsin D reactions were carried out in a final volume of 20 μl per well in a 384-well microplate using a Caliper LabChip 3000 (Hopkinton, Mass.). A standard enzymatic reaction, initiated by the addition of 10 μ12× substrate to 5 μl of 4× enzyme and 5 μl of 4× peptide or small molecule inhibitor, contained 12 nM rhBACE1, 1 μM FAM-[…]-amide (SEQ ID NO: 20), 50 mM NaOAc, pH 4.4, 0.1% CHAPS. The same reaction conditions were used for rhBACE2 (5 nM) and Cathepsin D (6 nM) (Cat. No. 219394; EMD Biosciences, San Diego, Calif.). After incubation for 60 min at room temperature, the product and substrate in each reaction were separated using a 12-sipper microfluidic chip. Separation of product and substrate was optimized by choosing voltages and pressure using the Caliper Optimizer software. The separation buffer contained 100 mM HEPES, pH 7.2, 0.015% Brij-35, 0.1% Coating Reagent #3, 10 mM EDTA and 5% DMSO. The separation conditions used a downstream voltage of −500 V, an upstream voltage of −2250 V, and a screening pressure of −1.2 psi. The product and substrate fluorescence was excited at 488 nm and detected at 530 nm. Substrate conversion was calculated from the electrophoregram using the Caliper HTS Well Analyzer software.
Target sequence in this assay (P56817 46-457 limits assumed): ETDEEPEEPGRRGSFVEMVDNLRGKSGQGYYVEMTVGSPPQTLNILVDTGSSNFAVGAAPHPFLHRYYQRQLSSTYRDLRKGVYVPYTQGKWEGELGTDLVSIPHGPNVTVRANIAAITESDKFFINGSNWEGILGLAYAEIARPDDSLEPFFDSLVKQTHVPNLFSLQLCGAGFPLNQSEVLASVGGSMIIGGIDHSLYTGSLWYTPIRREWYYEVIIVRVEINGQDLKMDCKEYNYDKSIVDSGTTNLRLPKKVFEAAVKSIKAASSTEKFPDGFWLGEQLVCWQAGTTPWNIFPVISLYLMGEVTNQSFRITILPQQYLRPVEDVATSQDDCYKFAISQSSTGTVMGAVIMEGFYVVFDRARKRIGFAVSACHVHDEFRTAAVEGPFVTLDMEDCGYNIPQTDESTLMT

The subject of test [4] is Aβ1-40 production in 293-hAPP cells. Put plainly: Aβ1-40 assay in 293-hAPP cells. The test is classed as cell-based, human. As to conditions: 293-HEK cells stably transfected with APP, 24 h. The protocol:
Aβ1-40 Assay in 293-hAPP Cells.
Aβ1-40 production was measured in 293-HEK cells stably expressing wild-type human APP(695) complementary DNA (cDNA) (293-hAPP). Cells were seeded overnight at 3×10^4 cells per well in a 96-well plate. Fresh media [Dulbecco's modified Eagle's medium (DMEM)+10% fetal bovine serum (FBS)] containing various inhibitors were incubated with the 293-hAPP cells for 24 h. The cellular medium was harvested and assayed for the presence of Aβ1-40 with an Aβ1-40 HTRF assay (CisBio) according to the manufacturer's instructions. Aβ1-40 values were normalized for cell viability, as determined with the CellTiter-Glo Luminescent Cell Viability Assay (Promega). Experiments were performed at least 3 times, and each point in each experiment was repeated in duplicate. Data was plotted with a 4-parameter nonlinear regression curve-fitting program (KaleidaGraph, Synergy Software).

Test [5] concerns the target T2, BACE1 (Homo sapiens, UniProt P56817). The test can be described thus: Biotinylated BACE020 competition binding ELISA. As to conditions: concentration dependent addition of competitor. Also on record: extracellular domain (ECD) (residues 22-457) and a C-terminal His8 tag; made in house; host or cells: Chinese hamster ovary cells (transient). The protocol:
The coated wells were washed with buffer (PBS, 0.05% Polysorbate 20) and blocked with assay buffer (PBS, pH 7.4, 0.5% BSA, 0.05% Tween 20, 15 ppm Proclin) for 1 h at room temperature with gentle shaking.
A general note: ELISA stands for enzyme-linked immunosorbent assay.
Target sequence in this assay (P56817 22-457): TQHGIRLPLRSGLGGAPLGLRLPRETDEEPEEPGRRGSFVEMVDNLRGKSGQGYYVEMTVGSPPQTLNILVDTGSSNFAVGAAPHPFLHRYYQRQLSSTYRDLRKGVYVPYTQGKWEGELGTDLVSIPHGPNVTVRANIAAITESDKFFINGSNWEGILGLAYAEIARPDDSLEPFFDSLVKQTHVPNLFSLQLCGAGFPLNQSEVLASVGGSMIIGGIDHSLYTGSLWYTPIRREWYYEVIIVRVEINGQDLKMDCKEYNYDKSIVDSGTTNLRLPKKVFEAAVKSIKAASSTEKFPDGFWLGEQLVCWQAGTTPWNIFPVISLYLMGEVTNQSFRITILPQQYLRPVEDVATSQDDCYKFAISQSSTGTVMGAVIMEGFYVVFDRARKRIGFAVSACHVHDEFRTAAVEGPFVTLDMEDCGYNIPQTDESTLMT

Test [6] deals with T2, BACE1. The test can be described thus: Phage ELISA of peptide-displaying phage on plate-immobilized BACE1. The test is classed as binding. As to conditions: 70 nM BMS1 peptide. On the procedure:
BMS1, BMS2 and BMS4 are the same as peptide identifiers 1, 2 and 4, respectively as previously described (Kornacker, M. G. et al. (2005) Biochemistry 44: 11567-73). […] FIG. 1C depicts the competition of peptide-displaying phage bound to BACE1 with synthesized peptide BMS1. The bars represent phage ELISA signal in the absence (gray) or presence (black) of 70 nM BMS1 peptide. The phage peptide ID is as denoted in FIG. 1A.
BACE017 is a BACE1 binding peptide ligand obtained from the solution panning of BACE1 against the naïve peptide library in the presence of 100 μM BACE010. BACE018-BACE021 are peptide sequences for BACE1 binding peptides derived from the affinity maturation of BACE017. The phage spot ELISA data is listed to indicate the relative binding affinity for individual clones. The column labeled with ELISA is the phage-binding signal to BACE1, s/n ratio represents the signal/noise ratio, in which “signal” is the data as shown in column “ELISA” and noise is the phage-binding signal to BSA as background nonspecific binding. […]
After 4 rounds of binding selection, individual phage clones were analyzed in a high-throughput spot phage ELISA (Sidhu, S. S. et al. (2000) Methods Enzymol 328: 333-63) using plate-immobilized BACE1 as the target. The binding signal of the same phage particle to BSA was detected as non-specific binding noise. […]
Target sequence in this assay (P56817 46-501): as the sequence (P56817 46-501) above

One may read the IC50 as the midpoint of a concentration-inhibition curve. A higher IC50 goes with lower potency. Take `CC[C@H](C)[C@H](NC(=O)[C@H](Cc1c[nH]cn1)NC(=O)[C@H](CCC(=O)O)NC(=O)[C@H](CCC(=O)O)NC(=O)[C@H](CC(N)=O)NC(C)=O)C(=O)N[C@@H](Cc1ccc(O)cc1)C(=O)N[C@H]1CSSC[C@@H](C(=O)NCC(N)=O)NC(=O)CNC(=O)[C@H](CC(C)C)NC(=O)CNC(=O)[C@H](CC(C)C)NC(=O)[C@H](CC(C)C)NC(=O)[C@H](CCCNC(=N)N)NC1=O` [BACE017] (Ac-NEEHIYCRLLGLGCG-NH2; disulfide 7-14): the values for the IC50 against human BACE1 (rhBACE1) [1], at human BACE1 (rhBACE1) [2] and against human BACE1 (rhBACE1) [3] were 438 nM, greater than 10000 nM and greater than 10000 nM, respectively.

With `CSCC[C@@H]1NC(=O)[C@H](CC(C)C)NC(=O)[C@H](CCCNC(=N)N)NC(=O)[C@@H](NC(=O)[C@H](Cc2ccc(O)cc2)NC(=O)[C@@H]2CCCN2C(=O)[C@H](CO)NC(=O)[C@H](CC(C)C)NC(=O)[C@H](CCC(=O)O)NC(=O)[C@H](CC(N)=O)NC(C)=O)CSSC[C@@H](C(=O)N[C@@H](CC(=O)O)C(N)=O)NC(=O)CNC(=O)[C@H](CC(C)C)NC(=O)CNC1=O` [BACE019] (Ac-NELSPYCRLMGLGCD-NH2; disulfide 7-14), the IC50 against human BACE1 (rhBACE1) [1] is 10 nM; on human BACE1 (rhBACE1) [2], 10 ± 3 nM.

On to `CC[C@H](C)[C@@H]1NC(=O)CNC(=O)[C@H](CC(C)C)NC(=O)[C@H](CC(C)C)NC(=O)[C@H](CCCNC(=N)N)NC(=O)[C@@H](NC(=O)[C@H](Cc2ccc(O)cc2)NC(=O)[C@H](CCSC)NC(=O)[C@H](CO)NC(=O)[C@H](CCC(=O)O)NC(=O)[C@H](CCC(=O)O)NC(=O)[C@H](CC(N)=O)NC(C)=O)CSSC[C@@H](C(=O)NCC(N)=O)NC(=O)CNC1=O` [BACE020] (Ac-NEESMYCRLLGIGCG-NH2; disulfide 7-14), for which the “Inhibition of Aβ production in cells (in words)” value (“Inhibition of Aβ production” for short) in test [4] was “potent inhibitor”. Further, at human BACE1 (rhBACE1) [1], the “Effect on BACE1 activity in HTRF enzyme activity assay (in words)” value (shortened to “Effect on BACE1 activity”) was “best inhibitory activity”. Further, the IC50 at human BACE1 (rhBACE1) [1] came out at 12 nM; on human BACE1 (rhBACE1) [2] it was 11 ± 2 nM; against human BACE1 (rhBACE1) [3], 11 ± 3 nM.

As to Ac-NEESMYSRLLGIGSG-NH2 [BACE027], the “Inhibition of Aβ production” value in test [4] is “no inhibition”. For the same compound, the half-maximal inhibitory concentration (IC50) on human BACE1 (rhBACE1) [2] and at human BACE1 (rhBACE1) [3] was greater than 10000 nM in each case.

For “Ac-NLTTYPYFIPLP-NH2 [BMS1, reference compound]”, the “Inhibition of Aβ production” value in test [4] is listed as “no inhibition”. Besides, at BACE1 [5], the “Competition for binding of biotinylated BACE020 to BACE1” value is listed as “no competition”. Besides, the IC50 at human BACE1 (rhBACE1) [2] was greater than 10000 nM.

Regarding Ac-SGPYFIEYMSAV-NH2 [BACE010], at human BACE1 (rhBACE1) [1], the “Effect on BACE1 activity” value was “very weak inhibitor”. At human BACE1 (rhBACE1) [2], this compound yielded an IC50 greater than 10000 nM. Moreover, the “Binding of phage-displayed peptide to BACE1 in competition with peptide BMS1” value on BACE1 [6] was “competitive”.

Consider “BACE011: Ac-SGCLDYPCFVPIS-NH2 (disulfide 3-8 (inferred))”, for which the “Effect on BACE1 activity” value with human BACE1 (rhBACE1) [1] is on record as “activator”. The “Binding of phage-displayed peptide to BACE1 in competition with peptide BMS1” value in the test with BACE1 [6] was “competitive”.

Turning to OM99-2 [reference compound], the “Inhibition of Aβ production” value in test [4] is on record as “not all enzymatic inhibitors showed cellular activity”.
